Results reported in the NIST ThermoML archive (doi:10.1021/je700322p).

Conditions: Liquid

CCO [ethanol]
Conditions	vapor or sublimation pressure [kPa]
321 K	26.41
324 K	30.53
327 K	35.19
330 K	40.44
333 K	46.34
336 K	52.96
339 K	60.35
342 K	68.6
345 K	77.77
348 K	87.96
351 K	99.24
354 K	111.7
357 K	125.44
359 K	135.37

CCOC(C)=O [ethyl acetate]
Conditions	vapor or sublimation pressure [kPa]
310 K	21.72
313 K	24.78
316 K	28.18
319 K	31.95
322 K	36.12
325 K	40.73
328 K	45.8
331 K	51.36
334 K	57.46
337 K	64.13
340 K	71.4
343 K	79.32
346 K	87.93
349 K	97.26
352 K	107.36
355 K	118.27
358 K	130.03
359 K	134.15
